Source: BindingDB's records for doi:10.1016/0960-894X(96)00232-6 (1996)

Assays:
[1] = Compound was evaluated for the receptor binding activity in rabbit artery vascular smooth muscle cells expressing Endothelin A receptor
[2] = Inhibition of ET- 1 stimulated arachidonic acid release (AAR) in cultured rabbit renal vascular smooth muscle cells expressing the endothelin B receptor.
[3] = Inhibition of ET- 1 stimulated arachidonic acid release (AAR) in cultured rabbit renal vascular smooth muscle cells expressing the endothelin A receptor.

Row | SMILES | IC50 [1] [µM] | IC50 [2] [µM] | IC50 [3] [µM]
1 | COc1cccc(Sc2c(C(=O)O)sc3ccccc23)c1 [3-(3-Methoxy-phenylsulfanyl)-benzo[b]thiophene-2-carboxylic acid] | 5.9 |  | 
2 | COc1cc2c(Sc3ccc4c(c3)OCO4)c(C(=O)O)n(Cc3ccc4c(c3)OCO4)c2cc1OCc1ccccc1 [1-Benzo[1,3]dioxol-5-ylmethyl-3-(benzo[1,3]dioxol-5-ylsulfanyl)-6-benzyloxy-5-methoxy-1H-indole-2-carboxylic acid] |  | 0.74 | 3.4
3 | COc1cccc(Sc2c(C(=O)O)oc3ccccc23)c1 [3-(3-Methoxy-phenylsulfanyl)-benzofuran-2-carboxylic acid] | 23 |  | 
4 | COc1ccc(Sc2c(C(=O)O)n(Cc3ccc4c(c3)OCO4)c3cc4c(cc23)OCO4)cc1OC [5-Benzo[1,3]dioxol-5-ylmethyl-7-(3,4-dimethoxy-phenylsulfanyl)-5H-[1,3]dioxolo[4,5-f]indole-6-carboxylic acid] |  |  | 0.065
